“And” between values parts separate entries of the source, which are not always exact repeats. Identical values can stand only once. Like-named read-outs stand apart in the source and are kept apart here.
How the values were obtained:
[1] = molecular target: T1, CB1 receptor (Homo sapiens, UniProt P21554); experiment: Binding assay for CB1 agonists or inverse agonists (SK-N-MC membranes, [3H]-CP-55,940); conditions: for inhibition at 0.015 µM: read-out: CB1 receptor binding percent inhibition, test concentration 0.015 μM (footnote 7); for inhibition at 0.25 µM: read-out: CB1 receptor binding percent inhibition, test concentration 0.25 μM (footnote 8); for inhibition at 0.2 µM: read-out: CB1 receptor binding percent inhibition, test concentration 0.2 μM (footnote 2); for inhibition at 1 µM: read-out: CB1 receptor binding percent inhibition, test concentration 1 μM (footnote 1); for CB1 receptor binding average percent inhibition: value shown is an average percent inhibition (footnote 5), concentration not given
T1 construct: expressed in transfected cells
Procedure, shortened: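 Membranes from SK-N-MC cells stably expressing human CB1 incubated with compound and [3H]-CP-55,940 ([…]) for 90 min at 30° C in Tris-HCl pH 7.5, MgCl2, EDTA, fatty-acid-free BSA. Non-specific binding defined with 10 uM WIN 55,212; filtration, scintillation count; IC50 by linear regression.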

[2] = molecular target: T2, CB2 receptor (Homo sapiens, UniProt P34972); experiment: Binding assay for CB2 agonists or inverse agonists (SK-N-MC membranes, [3H]-CP-55,940); conditions: for inhibition at 0.25 µM: read-out: CB2 receptor binding percent inhibition, test concentration 0.25 μM (footnote 8); for inhibition at 0.2 µM: read-out: CB2 receptor binding percent inhibition, test concentration 0.2 μM (footnote 2); for CB2 receptor binding percent inhibition: test concentration not stated
T2 construct: expressed in transfected cells
Procedure, shortened: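 Membranes from SK-N-MC cells stably expressing human CB2 were incubated with radioligand and test compounds for 90 min at 30 °C in Tris-HCl buffer, pH 7.5, with MgCl2, EDTA and fatty-acid-free BSA. Filter-bound radioactivity was counted; IC50 was derived by linear regression of percent inhibition.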

[3] = molecular target: T1, CB1 receptor; experiment: cell-based
Procedure, shortened: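 SK-N-MC cells stably co-expressing human CB1 and a CRE-β-galactosidase reporter; forskolin-induced β-gal activity measured after compound treatment, as % of vehicle-treated cells (100%). EC50 by linear regression from concentration series; otherwise % change at a single concentration.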

[4] = Cannabinoid CB1 Receptor Binding IC50, calculated by linear regression from percent inhibition at various test concentrations
[5] = CB1 Receptor Functional Inverse Agonist EC50, forskolin induced β-galactosidase activity, SK-N-MC cells
[6] = calculated by linear regression from percent inhibition at various test concentrations, read-out: Cannabinoid CB1 Receptor Binding IC50
[7] = forskolin induced β-galactosidase activity, SK-N-MC cells, read-out: CB1 Receptor Functional Inverse Agonist EC50

T2 sequence (P34972 whole entry): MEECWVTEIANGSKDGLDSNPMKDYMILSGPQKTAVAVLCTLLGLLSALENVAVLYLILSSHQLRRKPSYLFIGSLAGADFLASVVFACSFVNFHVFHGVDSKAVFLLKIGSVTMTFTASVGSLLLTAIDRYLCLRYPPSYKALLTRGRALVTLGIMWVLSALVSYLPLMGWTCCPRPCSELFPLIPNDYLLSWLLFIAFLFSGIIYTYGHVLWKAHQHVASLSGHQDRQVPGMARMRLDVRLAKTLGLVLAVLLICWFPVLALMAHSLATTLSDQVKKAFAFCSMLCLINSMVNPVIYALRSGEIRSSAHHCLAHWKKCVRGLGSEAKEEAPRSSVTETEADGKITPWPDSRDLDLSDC
T1 sequence (P21554 whole entry): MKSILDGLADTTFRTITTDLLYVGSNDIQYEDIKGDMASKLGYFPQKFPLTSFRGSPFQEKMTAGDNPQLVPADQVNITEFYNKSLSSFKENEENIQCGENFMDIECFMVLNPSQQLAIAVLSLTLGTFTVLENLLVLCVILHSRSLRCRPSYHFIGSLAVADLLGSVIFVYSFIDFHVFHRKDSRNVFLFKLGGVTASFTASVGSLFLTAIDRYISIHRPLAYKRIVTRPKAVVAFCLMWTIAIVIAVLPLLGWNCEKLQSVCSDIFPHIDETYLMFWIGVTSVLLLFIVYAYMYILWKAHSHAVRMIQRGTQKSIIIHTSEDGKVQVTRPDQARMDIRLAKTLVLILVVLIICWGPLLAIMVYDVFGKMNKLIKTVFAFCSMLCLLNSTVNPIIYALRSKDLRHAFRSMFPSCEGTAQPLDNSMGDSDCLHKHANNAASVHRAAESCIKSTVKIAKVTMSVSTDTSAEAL

| SMILES | IC50 [1, 4] | EC50 [3, 5] [nM] | inhibition at 0.2 µM [1] [%] | inhibition at 0.2 µM [2] [%] | inhibition at 1 µM [1] [%] | CB2 receptor binding percent inhibition [2] [%] | further results |
| --- | --- | --- | --- | --- | --- | --- | --- |
| CC(NC(=O)c1nn(-c2ccc(Cl)cc2Cl)c2c1CCCC/C2=C\c1ccc(Cl)cc1)c1ccc(Cl)cc1 (stereo not drawn) [Cpd 137, (8E)-8-(4-chloro-benzylidene)-1-(2,4-dichloro-phenyl)-1,4,5,6,7,8-hexahydro-cycloheptapyrazole-3-carboxylic acid [1-(4-chloro-phenyl)-ethyl]-amide] | 10 nM | 30 |  |  |  |  | inhibition at 0.015 µM [1]: 57%; inhibition at 0.25 µM [1]: 77%; inhibition at 0.25 µM [2]: 0% |
| COc1ccc(/C=C2\CCCCc3c(C(=O)NCc4ccccn4)nn(-c4ccc(Cl)cc4Cl)c32)cc1 [Cpd 210, (8E)-1-(2,4-dichloro-phenyl)-8-(4-methoxy-benzylidene)-1,4,5,6,7,8-hexahydro-cycloheptapyrazole-3-carboxylic acid (pyridin-2-ylmethyl)-amide] | 40 nM | 20 | 76 | 49 |  |  |  |
| O=C(NN1CCCCC1)c1nn(-c2ccc(Cl)cc2Cl)c2c1CCCC/C2=C\c1ccc(F)cc1 [Cpd 150, (8E)-1-(2,4-dichloro-phenyl)-8-(4-fluoro-benzylidene)-1,4,5,6,7,8-hexahydro-cycloheptapyrazole-3-carboxylic acid piperidin-1-ylamide] | 100 nM | 20 | 65 | 3 |  |  |  |
| CC12CCC(C1)C(C)(C)[C@H]2NC(=O)c1nn(C2CCCCC2)c2c1CCCCC2Cc1ccc(F)cc1 (stereo partly drawn) [Cpd 58, 1-cyclohexyl-8-(4-fluoro-benzyl)-1,4,5,6,7,8-hexahydro-cycloheptapyrazole-3-carboxylic acid [(2S)-1,3,3-trimethyl-bicyclo[2.2.1]hept-2-yl]-amide] |  |  |  |  | 75 | 74 | IC50 [1, 6]: 200 nM; inhibition at 0.015 µM ([2]; test concentration 0.015 μM (footnote 7), read-out: CB2 receptor binding percent inhibition): 65%; inhibition at 1 µM ([2]; test concentration 1 μM (footnote 1), read-out: CB2 receptor binding percent inhibition): 98%; EC50 ([3]; SK-N-MC cells, forskolin induced β-galactosidase activity, read-out: CB1 Receptor Functional Agonist EC50): 1400 nM |
| C[C@@H](NC(=O)c1nn(-c2ccc(S(N)(=O)=O)cc2)c2c1CCCC/C2=C\c1ccc(Cl)cc1)c1ccccc1 [Cpd 184, (8E)-8-(4-chloro-benzylidene)-1-(4-sulfamoyl-phenyl)-1,4,5,6,7,8-hexahydro-cycloheptapyrazole-3-carboxylic acid [(1R)-1-phenyl-ethyl]-amide] | 50 nM | 3 | 78 | 27 |  |  |  |
| C[C@@H](NC(=O)c1nn(-c2ccc(Cl)cc2Cl)c2c1CCCC/C2=C\c1ccc(F)cc1)c1ccccc1 [Cpd 146, (8E)-1-(2,4-dichloro-phenyl)-8-(4-fluoro-benzylidene)-1,4,5,6,7,8-hexahydro-cycloheptapyrazole-3-carboxylic acid [(1R)-1-phenyl-ethyl]-amide] | 8 nM and 10 nM | 20 | 93 | 10 |  | 3 | IC50 ([2]; Cannabinoid CB2 Receptor Binding IC50, calculated by linear regression from percent inhibition at various test concentrations): 2300 nM |
| COC(=O)[C@@H](Cc1ccc(O)cc1)NC(=O)c1nn(-c2ccc(Cl)cc2Cl)c2c1CCCCC2Cc1cccc(Cl)c1 (stereo partly drawn) [Cpd 102, (2R)-2-{[8-(3-chloro-benzyl)-1-(2,4-dichloro-phenyl)-1,4,5,6,7,8-hexahydro-cycloheptapyrazole-3-carbonyl]-amino}-3-(4-hydroxy-phenyl)-propionic acid methyl ester] | 600 nM | 70 |  |  | 77 | 59 | inhibition at 0.5 µM ([1]; read-out: CB1 receptor binding percent inhibition, test concentration 0.5 μM (footnote 10)): 55% |
| COC(=O)[C@@H](Cc1ccc(F)cc1)NC(=O)c1nn(-c2ccc(Cl)cc2Cl)c2c1CCCC[C@@H]2Cc1cccc(F)c1 [Cpd 77, (2R)-2-{[(8R)-1-(2,4-dichloro-phenyl)-8-(3-fluoro-benzyl)-1,4,5,6,7,8-hexahydro-cycloheptapyrazole-3-carbonyl]-amino}-3-(4-fluoro-phenyl)-propionic acid methyl ester] |  | 100 |  |  | 44 | 28 | CB1 receptor binding percent inhibition ([1]; test concentration not stated): 51%; CB1 receptor binding average percent inhibition [1]: 57% |
| O=C(c1nn(-c2ccc(Cl)cc2Cl)c2c1CCCC/C2=C\c1ccc(F)cc1)N1CCCC1c1ccccn1 (stereo not drawn) [Cpd 188, (8E)-[1-(2,4-dichloro-phenyl)-8-(4-fluoro-benzylidene)-1,4,5,6,7,8-hexahydro-cycloheptapyrazol-3-yl]-(2-pyridin-2-yl-pyrrolidin-1-yl)-methanone] | 100 nM | 10 | 64 | 36 |  |  |  |
| C[C@H](NC(=O)c1nn(C2CCCCC2)c2c1CCCCC2Cc1cccc(F)c1)c1ccccc1 (stereo partly drawn) [Cpd 45, 1-cyclohexyl-8-(3-fluoro-benzyl)-1,4,5,6,7,8-hexahydro-cycloheptapyrazole-3-carboxylic acid [(1S)-1-phenyl-ethyl]-amide] |  |  |  |  | 54 | 42 | IC50 [1, 6]: 700 nM; EC50 [3, 7]: 1100 nM |
| C[C@@H](NC(=O)c1nn(C2CCCCC2)c2c1CCCCC2Cc1cccc(Cl)c1)c1ccccc1 (stereo partly drawn) [Cpd 8, 8-(3-chloro-benzyl)-1-cyclohexyl-1,4,5,6,7,8-hexahydro-cycloheptapyrazole-3-carboxylic acid [(1R)-1-phenyl-ethyl]-amide] |  |  |  |  | 30 | 5 | EC50 [3, 7]: 400 nM |
| C[C@@H](NC(=O)c1nn(-c2ccc(S(N)(=O)=O)cc2)c2c1CCCC/C2=C\c1ccc(Cl)cc1)C1CCCCC1 [Cpd 185, (8E)-8-(4-chloro-benzylidene)-1-(4-sulfamoyl-phenyl)-1,4,5,6,7,8-hexahydro-cycloheptapyrazole-3-carboxylic acid [(1R)-1-cyclohexyl-ethyl]-amide] | 30 nM | < 3 | 75 | 56 |  |  |  |
| Cn1nc(C(=O)N[C@H]2C3(C)CCC(C3)C2(C)C)c2c1C(Cc1ccccc1Cl)CCCC2 (stereo partly drawn) [Cpd 40, 8-(2-chloro-benzyl)-1-methyl-1,4,5,6,7,8-hexahydro-cycloheptapyrazole-3-carboxylic acid [(2S)-1,3,3-trimethyl-bicyclo[2.2.1]hept-2-yl]-amide] | 70 nM |  |  |  | 84 | 75 | inhibition at 0.015 µM ([2]; read-out: CB2 receptor binding percent inhibition, test concentration 0.015 μM (footnote 7)): 65%; inhibition at 1 µM ([2]; read-out: CB2 receptor binding percent inhibition, test concentration 1 μM (footnote 1)): 84%; EC50 ([3]; CB1 Receptor Functional Agonist EC50, SK-N-MC cells, forskolin induced β-galactosidase activity): 100 nM |
| O=C(NN1CCCCC1)c1nn(-c2ccc(Cl)cc2Cl)c2c1CCCCC2Cc1cccc(Cl)c1 (stereo not drawn) [Cpd 28, 8-(3-chloro-benzyl)-1-(2,4-dichloro-phenyl)-1,4,5,6,7,8-hexahydro-cycloheptapyrazole-3-carboxylic acid piperidin-1-ylamide] | 100 nM | 50 |  |  | 65 | 11 |  |
| C[C@@H](NC(=O)c1nn(-c2ccc(Cl)cc2Cl)c2c1CCCC/C2=C\c1ccc(Cl)cc1)c1ccccc1 [Cpd 131, (8E)-8-(4-chloro-benzylidene)-1-(2,4-dichloro-phenyl)-1,4,5,6,7,8-hexahydro-cycloheptapyrazole-3-carboxylic acid [(1R)-1-phenyl-ethyl]-amide] | 6 nM | < 30 |  |  |  |  | inhibition at 0.015 µM [1]: 53%; inhibition at 0.25 µM [1]: 93%; inhibition at 0.25 µM [2]: 34% |
| COC(=O)[C@@H](Cc1ccc(O)cc1)NC(=O)c1nn(-c2ccc(Cl)cc2Cl)c2c1CCCCC2Cc1ccc(F)cc1 (stereo partly drawn) [Cpd 81, (2R)-2-{[1-(2,4-dichloro-phenyl)-8-(4-fluoro-benzyl)-1,4,5,6,7,8-hexahydro-cycloheptapyrazole-3-carbonyl]-amino}-3-(4-hydroxy-phenyl)-propionic acid methyl ester] |  |  |  |  |  | 28 | CB1 receptor binding average percent inhibition [1]: ^(5)42%; EC50 [3, 7]: 300 nM |
| CCOC(=O)[C@H]1C2C=CC(C2)[C@H]1NC(=O)c1nn(-c2ccc(Cl)cc2Cl)c2c1CCCCC2Cc1cccc(F)c1 (stereo partly drawn) [Cpd 79, (2S,3R)-3-{[1-(2,4-dichloro-phenyl)-8-(3-fluoro-benzyl)-1,4,5,6,7,8-hexahydro-cycloheptapyrazole-3-carbonyl]-amino}-bicyclo[2.2.1]hept-5-ene-2-carboxylic acid ethyl ester] |  | 500 |  |  |  | 29 | CB1 receptor binding average percent inhibition [1]: ^(5)37% |

From patent US8378117B2 (priority 2005, dated 2013)
